Data from US12569875B2, “Film formation method” (FLOSFIA INC., priority 2023, dated 2026).

Legend:
[1] = Preparation of an aqueous iridium complex solution (water solubility); type: physicochemical; settings: aqueous solution at iridium concentration 0.01 mol/L could not be prepared
[2] = Thermogravimetric-differential thermal analysis (TG-DTA) of iridium complexes; type: physicochemical
Excerpt: The iridium complexes used in Examples and Comparative Examples described above were subjected to a thermogravimetric-differential thermal analysis (TG-DTA) under an oxygen atmosphere and a nitrogen atmosphere respectively, to examine decomposition properties of the complexes. […] As the iridium complex, the iridium complex represented be the above formula (3) and the iridium complex represented by the above formula (5) were used for Examples and Comparative Examples respectively.

iridium acetylacetonato [formula (5)]
solubility in water [1]: insoluble in water
mass loss at 400 to 600° C. ([2]; TG-DTA, 400 to 600° C., FIG. 3): little mass loss
mass loss ratio ([2]; at 400° C., temperature increase rate 20° C./min, FIG. 2 / FIG. 3): about 70%
